The subject of data set [1] is chick embryo pelvic cartilage. The conditions noted are these: cited from earlier work.
Another data set has as its system cat fleas. As to conditions: ingestion by cat fleas; cited from earlier work.
The next data set concerns neutrophiles. As to conditions: intact neutrophiles stimulated by thrombin or leukotriene B4; extracellular addition; cited from earlier work.
The subject of the next data set is human platelets. The conditions noted are these: intact human platelets stimulated by thrombin or leukotriene B4; extracellular addition; cited from earlier work.
Data set [2] deals with rat cerebral microsomal preparations. As to conditions: cited from earlier work.
Another data set has as its system human fibroblasts. The data set can be described thus: H3Proline/H3Leucine incorporation in human fibroblasts (FIG. 5). The data set is classed as cell-based. The conditions noted are these: single dose, compared to untreated cells.
The next data set relates to HIV. As to conditions: cited from earlier work.
Data set [3] relates to normal human fibroblasts. The data set is described as follows: Cytotoxicity on normal human fibroblasts by MTT assay (FIG. 3). The data set is classed as cell-based. As to conditions: 72 hours; for cytotoxic effects (MTT assay), in words: single dose, normal human fibroblasts, FIG. 3: increasing concentrations. An excerpt:
(§1) FIGS. 3-7 illustrate results of experiments designed to elucidate some of the biological properties that may be present in contemplated boron compounds/complexes. In these examples, we studied the action of two boron complexes: sodium fructo-borate (SFB) and sodium salicylato-borate (SSB), upon normal human fibroblasts, in comparison to untreated fibroblasts and ones treated with boric acid (BA, uncomplexed with any ligand). FIG. 3 depicts results of a single dose treatment of human fibroblasts with increasing concentrations of BA, SFB and SSB for 72 hours in order to determine their cytotoxic effects (by MTT assay).

Data set [4] concerns normal human fibroblasts. The data set is described as follows: Collagen synthesis: ratio of H3Proline to H3Thymidine incorporation in human fibroblasts (FIG. 6). The class given is cell-based. As to conditions: single dose, 72 hours. On the procedure:
FIG. 6 is a graph depicting experimental results of increase of collagen synthesis (measured by determination of ratio between incorporation of H3Proline and H3Thymidine) in human fibroblasts by treating them with A, B and C, compared to untreated cells.
FIG. 6 depicts the results of a single dose treatment of normal human fibroblasts with the selected compounds for 72 hours, in which case the increase of collagen synthesis was calculated by ratio between incorporation of H3Proline over the incorporation of H3Thymidine under the same experimental conditions. In this experiment, SFB was best at the concentration of 1 ug/ml, while at the concentration of 10 ug/ml its activity was next to BA. […] These properties are of special value for skin-rejuvenation purposes.

The test system of data set [5] is normal human fibroblasts. The data set can be described thus: H3Proline incorporation in human fibroblasts (FIG. 4). The data set is classed as cell-based. As to conditions: single dose, 72 hours, vs BA, SFB, SSB. On the procedure:
FIG. 4 is a graph depicting experimental results of H3Proline incorporation (in human fibroblasts) upon treatment with A, B, and C compared to untreated cells.
FIG. 4 depicts results from treatment of normal human fibroblasts with a single dose of BA, SFB and SSB for 72 hours, whereupon the final degree of incorporation of H3Proline was determined. The degree of H3Proline incorporation is a measure of the ongoing biosynthesis of collagen in treated cells.

The subject of data set [6] is normal human fibroblasts. The data set can be described thus: Multi-parameter analysis of biological activity, labeling cells with tritiated Uridine, Thymidine, Leucine and Proline (FIG. 7). The data set is classed as cell-based. The conditions noted are these: labeling for 8 hours.
Excerpt: FIG. 7 is a graph depicting a multi-parameter analysis of biological activity of complex B.
as §1
FIG. 7 depicts a multi-parameter analysis of biological activity of SFB.

Setting [7] is: same concentration, great molar excess of glucose in culture medium.

Entries after “also recorded” stand apart in the source; their conditions may differ.

As to `OB(O)O` [BA, boric acid], in data set [1] (1-3% aqueous boric acid), the “intracellular synthesis of proteoglycans, collagen and TNF-alpha” value was “strongly decreases”; the “release of proteoglycans, collagen and TNF-alpha into the culture medium” value is recorded as “induces release”. Also, in data set [1] (setting [7]), the intracellular protein synthesis result is reported as “does not decrease” and the “protein secretion into the culture medium” value is listed as “still stimulates”. Besides, the larvicidal effects result in the data set with cat fleas is reported as “Larvicidal effects”.

As to `NCCOB(c1ccccc1)c1ccccc1` [Example 2-APB, 2-amonoethoxydiphenyl borate], the “inhibition of cytosolic Ca rise” value with neutrophiles and in the data set on human platelets was “inhibited” in each case. In addition, the “inhibition of Ins(1,4,5)P3-induced Ca release” value in data set [2] was “inhibited”.

As for `O=C1O[B-]2(OC(=O)c3ccccc3O2)Oc2ccccc21` [SSB, sodium salicylato-borate], in the data set on human fibroblasts, the “preferred incorporation of H3Proline over H3Leucine, in words” value is reported as “best performance”.

Regarding `CC(C)[C@@H](N)C(=O)O[C@H](C)[C@@H]1C/C=C\CC[C@H](O)C(C)(C)[C@@H]2CC[C@@H](C)[C@@]3(O2)O[B-]24O[C@@H](C(=O)O1)[C@]1(O[C@@H](CC[C@H]1C)C(C)(C)[C@H](O)CCC[C@@H]1C[C@H](OC(=O)[C@@H]3O2)[C@@H](C)O1)O4.[H+]` [boromycin], in the data set with HIV, the anti-HIV activity entry is “anti-HIV antibiotic”.

For `O.O.O.O.O=BOB1OB(OB=O)OB2OB([O-])OB([O-])OB(O1)O2.[Na+].[Na+]` [disodium octaborate tetrahydrate], the larvicidal effects entry in the data set with cat fleas is “Larvicidal effects”.

Consider `O.O.O.O.O.O.O.O.O.O.[Na+].[Na+].[O-]B1OB2OB([O-])OB(O1)O2` [sodium borate, reference compound], for which the “cytotoxic effects (MTT assay), in words” value in the data set on normal human fibroblasts [3] is on record as “minimal cytotoxic effects”.

Consider sodium fructo-borate [SFB], for which the “increase of collagen synthesis (ratio H3Proline/H3Thymidine incorporation), in words” value in the data set on normal human fibroblasts [4] (1 ug/ml) was “best”; in the data set with normal human fibroblasts [4] (10 ug/ml), “next to BA”. Moreover, in the data set on human fibroblasts, the “preferred incorporation of H3Proline over H3Leucine, in words” value is reported as “quite close”. Moreover, the “degree of incorporation of H3Proline (measure of collagen biosynthesis), in words” value in the data set with normal human fibroblasts [5] is reported as “most beneficial effect”. For the same molecule, the “fold less toxic than BA (boric acid)” value in the data set on normal human fibroblasts [3] (100 ug/ml, MTT assay) was about 4 times. For the same molecule, the “cytotoxic effects (MTT assay), in words” value was “least toxic; also recorded: least toxicity” with normal human fibroblasts [3], “minimal cytotoxic effects” with normal human fibroblasts [3] (listed as sodium fructo-borate) and “considerably less toxic than boric acid” with normal human fibroblasts [3] (listed as sodium fructoborate). The “overall effects (tritiated Uridine, Thymidine, Leucine and Proline labeling), in words” value with normal human fibroblasts [6] was “quite favorable and beneficial”.

The values are drawn from patent US6080425A, “Boron compounds and complexes as skin-rejuvenating agents” (TopGene, Inc., priority 1998, dated 2000).
